Experimental data from patent US20230085307A1, “PYRIDAZINONE COMPOUND AND HERBICIDE” (NISSAN CHEMICAL CORPORATION, priority 2019, published 2023).

How the values were obtained:
[1] = system: velvetleaf; assay: Test Example 5: herbicidal effect by foliage application, plastic box (Table 20, symbol M); type: in vivo, velvetleaf (Abutilon theophrasti); conditions: foliage application, 320 g/ha; for effect on velvetleaf (M): 3 weeks after application
From the text: (§1) [Test Example 5] Herbicidal Effect Test by Foliage Application
(§2) Sterilized diluvial soil was placed in a plastic box having a length of 21 cm, a width of 13 cm, and a depth of 7 cm. The seeds of each of southern crabgrass, green foxtail, barnyard grass, wild oat, blackgrass, Italian ryegrass, windgrass, velvetleaf, redroot pigweed, lambsquarters, chickweed, false cleavers, persian speedwell, corn, soybean, rice, wheat, beet, and rapeseed were sowed in a spot-like manner and covered with the soil having a thickness of about 1.5 cm. Thereafter, the plants were grown in a greenhouse at 25° C. to 30° C. After 14-day growth of the plants, the emulsion agent of the compound of the present invention prepared according to Formulation Example 2 was diluted with water so as to achieve a predetermined herbicide amount, and the diluted emulsion agent was uniformly applied to a foliage part with a small-sized spray. Three weeks after the herbicide application, the effect of the herbicide on each plant was evaluated according to the criteria of Test Example 1.

[2] = system: barnyard grass; assay: Test Example 5: herbicidal effect by foliage application, plastic box (Table 20, symbol H); type: in vivo, barnyard grass (Echinochloa crus-galli); conditions: foliage application, 320 g/ha; for effect on barnyard grass (H): 3 weeks after application
From the text: as §1, §2

[3] = system: Italian ryegrass; assay: Test Example 5: herbicidal effect by foliage application, plastic box (Table 20, symbol K); type: in vivo, Italian ryegrass (Lolium multiflorum); conditions: foliage application, 320 g/ha; for effect on Italian ryegrass (K): 3 weeks after application
From the text: as §1, §2

[4] = system: blackgrass; assay: Test Example 5: herbicidal effect by foliage application, plastic box (Table 20, symbol J); type: in vivo, blackgrass (Alopecurus myosuroides); conditions: foliage application, 320 g/ha; for effect on blackgrass (J): 3 weeks after application
From the text: as §1, §2

[5] = system: Chinese sprangletop; assay: Test Example 3: herbicidal effect by foliage application, Wagner pot (Table 18, symbol D); type: in vivo, chinese sprangletop (Leptochloa chinensis)
Procedure: (§3) [Test Example 3] Herbicidal Effect Test by Foliage Application After alluvial soil was placed into 1/10000 are of Wagner pot, water was poured and mixed to form a submerged condition having a water depth of 0.1 cm to 0.5 cm. Seeds of barnyard grass, Chinese sprangletop, rice flat sedge, and rice were sowed and the pot was placed in a greenhouse at 25° C. to 30° C. for growth of the plants. After 14-day growth of the plants, the emulsion agent of the compound of the present invention prepared according to Formulation Example 2 was diluted with water so as to achieve a predetermined herbicide amount, and the diluted emulsion agent was uniformly applied to a foliage part with a small-sized spray. Three weeks after the herbicide application, the effect of the herbicide on each plant was evaluated according to the criteria of Test Example 1.

[6] = system: lambsquarters; assay: Test Example 5: herbicidal effect by foliage application, plastic box (Table 20, symbol O); type: in vivo, lambsquarters (Chenopodium album); conditions: foliage application, 320 g/ha; for effect on lambsquarters (O): 3 weeks after application
From the text: as §1, §2

[7] = system: barnyard grass; assay: Test Example 3: herbicidal effect by foliage application, Wagner pot (Table 18, symbol H); type: in vivo, barnyard grass (Echinochloa crus-galli)
Procedure: as §3

[8] = system: southern crabgrass; assay: Test Example 5: herbicidal effect by foliage application, plastic box (Table 20, symbol F); type: in vivo, southern crabgrass (Digitaria ciliaris); conditions: foliage application, 320 g/ha; for effect on southern crabgrass (F): 3 weeks after application
From the text: as §1, §2

[9] = system: persian speedwell; assay: Test Example 5: herbicidal effect by foliage application, plastic box (Table 20, symbol R); type: in vivo, Persian speedwell (Veronica persica); conditions: foliage application, 320 g/ha; for effect on persian speedwell (R): 3 weeks after application
From the text: as §1, §2

[10] = system: windgrass; assay: Test Example 5: herbicidal effect by foliage application, plastic box (Table 20, symbol L); type: in vivo, windgrass (Apera spica-venti); conditions: foliage application, 320 g/ha; for effect on windgrass (L): 3 weeks after application
From the text: as §1, §2

[11] = system: wild oat; assay: Test Example 5: herbicidal effect by foliage application, plastic box (Table 20, symbol I); type: in vivo, wild oat (Avena fatua); conditions: foliage application, 320 g/ha; for effect on wild oat (I): 3 weeks after application
From the text: as §1, §2

[12] = system: rice flat sedge; assay: Test Example 3: herbicidal effect by foliage application, Wagner pot (Table 18, symbol E); type: in vivo, rice flat sedge (Cyperus iria)
Procedure: as §3

[13] = system: green foxtail; assay: Test Example 5: herbicidal effect by foliage application, plastic box (Table 20, symbol G); type: in vivo, green foxtail (Setaria viridis); conditions: foliage application, 320 g/ha; for effect on green foxtail (G): 3 weeks after application
From the text: as §1, §2

[14] = amount of applied herbicide 320 g/ha

Row | Structure (SMILES) | effect on velvetleaf (M) [1] | effect on barnyard grass (H) [2] | effect on Italian ryegrass (K) [3] | effect on blackgrass (J) [4] | effect on lambsquarters (O) [6] | effect on southern crabgrass (F) [8] | effect on persian speedwell (R) [9] | effect on windgrass (L) [10] | effect on wild oat (I) [11] | effect on green foxtail (G) [13] | herbicidal effect on Chinese sprangletop (D) ([5]; 320 g/ha) | herbicidal effect on barnyard grass (H) ([7]; 320 g/ha) | herbicidal effect on rice flat sedge (E) ([12]; 320 g/ha) | other results
1 | Cc1nn(C)c(=O)c(-c2c(-c3ccc(CO)cc3)sc3ccccc23)c1O [1-238] | 5 (Herbicidal rate of 90% or more (almost completely withered)) | 3 (Herbicidal rate of 40% or more and less than 70%) | 3 (Herbicidal rate of 40% or more and less than 70%) | 0 (Herbicidal rate of 5% or less (almost no effect)) | 4 (Herbicidal rate of 70% or more and less than 90%) | 3 (Herbicidal rate of 40% or more and less than 70%) | 5 (Herbicidal rate of 90% or more (almost completely withered)) | 0 (Herbicidal rate of 5% or less (almost no effect)) | 0 (Herbicidal rate of 5% or less (almost no effect)) | 4 (Herbicidal rate of 70% or more and less than 90%) |  |  |  | herbicidal effect on D (Chinese sprangletop), rating 0-5 ([5]; 320 g/ha): 4 (Herbicidal rate of 70% or more and less than 90%); herbicidal effect on H (barnyard grass), rating 0-5 ([7]; 320 g/ha): 4 (Herbicidal rate of 70% or more and less than 90%); herbicidal effect on E (rice flat sedge), rating 0-5 ([12]; 320 g/ha): 4 (Herbicidal rate of 70% or more and less than 90%)
2 | COc1ccc(-c2sc3cc(C)c(C)cc3c2-c2c(O)c(C)nn(C)c2=O)cc1 [5-092] |  |  |  |  |  |  |  |  |  |  | 0 (Herbicidal rate of 5% or less (almost no effect)) | 2 (Herbicidal rate of 20% or more and less than 40%) | 0 (Herbicidal rate of 5% or less (almost no effect)) | herbicidal effect on velvetleaf (M) ([1]; three weeks after application): 0 (Herbicidal rate of 5% or less (almost no effect)); herbicidal effect on barnyard grass (H) ([2]; three weeks after application): 0 (Herbicidal rate of 5% or less (almost no effect)); herbicidal effect on Italian ryegrass (K) ([3]; three weeks after application): 0 (Herbicidal rate of 5% or less (almost no effect)); herbicidal effect on blackgrass (J) ([4]; three weeks after application): 0 (Herbicidal rate of 5% or less (almost no effect)); herbicidal effect on lambsquarters (O) ([6]; three weeks after application): 0 (Herbicidal rate of 5% or less (almost no effect)); herbicidal effect on southern crabgrass (F) ([8]; three weeks after application): 0 (Herbicidal rate of 5% or less (almost no effect)); herbicidal effect on persian speedwell (R) ([9]; three weeks after application): 4 (Herbicidal rate of 70% or more and less than 90%); herbicidal effect on windgrass (L) ([10]; three weeks after application): 0 (Herbicidal rate of 5% or less (almost no effect)); herbicidal effect on wild oat (I) ([11]; three weeks after application): 0 (Herbicidal rate of 5% or less (almost no effect)); herbicidal effect on green foxtail (G) ([13]; three weeks after application): 0 (Herbicidal rate of 5% or less (almost no effect))
3 | COc1c(C)nn(C)c(=O)c1-c1c(-c2ccnc(F)c2)sc2ccc(F)cc12 [2-427] |  |  |  |  |  |  |  |  |  |  |  |  |  | herbicidal effect on D: Chinese sprangletop [5, 14]: 0 (Herbicidal rate of 5% or less (almost no effect)); herbicidal effect on H: barnyard grass [7, 14]: 3 (Herbicidal rate of 40% or more and less than 70%); herbicidal effect on E: rice flat sedge [12, 14]: 2 (Herbicidal rate of 20% or more and less than 40%)
4 | CCCC(=O)Oc1c(C)nn(C)c(=O)c1-c1c(-c2ccc(C(F)(F)F)cc2)sc2cc(Cl)c(Cl)cc12 [5-048] |  |  |  |  |  |  |  |  |  |  | 4 (Herbicidal rate of 70% or more and less than 90%) | 3 (Herbicidal rate of 40% or more and less than 70%) | 0 (Herbicidal rate of 5% or less (almost no effect)) | 
5 | CCCC(=O)Oc1c(OC)nn(C)c(=O)c1-c1c(-c2ccsc2)sc2ccccc12 [1-193] |  |  |  |  |  |  |  |  |  |  |  |  |  | herbicidal effect on D (Chinese sprangletop), rating 0-5 ([5]; 80 g/ha): 1 (Herbicidal rate of 5% or more and less than 20%); herbicidal effect on H (barnyard grass), rating 0-5 ([7]; 80 g/ha): 2 (Herbicidal rate of 20% or more and less than 40%); herbicidal effect on E (rice flat sedge), rating 0-5 ([12]; 80 g/ha): 0 (Herbicidal rate of 5% or less (almost no effect))
6 | CCCC(=O)Oc1c(OC)nn(C)c(=O)c1-c1c(-c2cc3ccccc3o2)sc2ccccc12 [1-195] | 0 (Herbicidal rate of 5% or less (almost no effect)) | 0 (Herbicidal rate of 5% or less (almost no effect)) | 0 (Herbicidal rate of 5% or less (almost no effect)) | 0 (Herbicidal rate of 5% or less (almost no effect)) | 0 (Herbicidal rate of 5% or less (almost no effect)) | 0 (Herbicidal rate of 5% or less (almost no effect)) | 0 (Herbicidal rate of 5% or less (almost no effect)) | 0 (Herbicidal rate of 5% or less (almost no effect)) | 0 (Herbicidal rate of 5% or less (almost no effect)) | 0 (Herbicidal rate of 5% or less (almost no effect)) |  |  |  | 
